IC50 and EC50 data for 49 compounds are collected here from US9657009B2, “Heteroaryl substituted pyridyl compounds useful as kinase modulators” (BRISTOL-MYERS SQUIBB COMPANY, priority 2012, dated 2017).

Structures are written as SMILES. Read-outs that look alike come from different tables or passages of the source.

In one assay the target is IRAK4 (Homo sapiens (Human), UniProt Q9NWZ3). The assay is described as follows: IRAK4 Inhibition Assay. Type of assay: biochemical. On the procedure: IRAK4 Inhibition Assay The assays were performed in U-bottom 384-well plates. […] The reaction was initiated by the combination of IRAK4 with substrates and test compounds. The reaction mixture was incubated at room temperature for 60 min. and terminated by adding 45 μL of 35 mM EDTA to each sample.

Assay [1] has as its system TLR2 induced IL-6 in peripheral blood mononuclear cells (PBMCs). As to the kind of experiment: PBMC TLR2 Induced IL-6 Assay. Type of assay: cell-based. The settings on record: lipoteichoic acid 10 μg/ml, IL-6 by ELISA. On the procedure: PBMC TLR2 Induced IL-6 Assay Peripheral blood mononuclear cells (PBMCs) were isolated from human blood containing the anti-coagulant EDTA (2.5 mM) by centrifugation over a FICOLL® gradient. […] At the end of the culture, plates were centrifuged at 1800 rpm for 10 minutes to pellet the cells. Supernatants were harvested and analyzed for IL-6 levels by ELISA (BD Biosciences, San Jose, Calif.).
On the technique in general: An ELISA detects its analyte on a solid surface through an enzyme-linked reagent.

[2] abbreviates: ATP 500 μM; IRAK4 0.6 nM; 60 min at room temperature; read-out: IRAK4 IC50.
Where [3] appears, read: human PBMCs, 5 hours, values marked * are EC50, read-out: Cell EC50 (*EC50).

Sequence of IRAK4 (Q9NWZ3 whole entry, species assumed): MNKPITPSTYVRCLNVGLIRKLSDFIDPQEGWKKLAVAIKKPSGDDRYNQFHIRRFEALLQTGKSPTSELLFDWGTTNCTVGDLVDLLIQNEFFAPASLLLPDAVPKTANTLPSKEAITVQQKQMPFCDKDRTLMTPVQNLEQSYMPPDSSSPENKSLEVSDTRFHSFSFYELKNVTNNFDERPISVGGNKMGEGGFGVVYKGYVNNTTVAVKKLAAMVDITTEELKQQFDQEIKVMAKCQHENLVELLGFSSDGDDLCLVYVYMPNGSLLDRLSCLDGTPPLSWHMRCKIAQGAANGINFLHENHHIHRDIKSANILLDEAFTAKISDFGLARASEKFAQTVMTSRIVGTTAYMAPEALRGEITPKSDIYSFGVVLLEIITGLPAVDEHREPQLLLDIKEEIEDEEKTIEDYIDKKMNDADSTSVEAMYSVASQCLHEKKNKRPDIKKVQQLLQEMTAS

Regarding `CC(C)(O)[C@H](F)CNC(=O)c1cnc(Nc2ncc(C#N)cc2Cl)cc1NC1CCC(F)C1` (some centres unmarked) [Example 62], on IRAK4 (setting [2]), the IC50 (as a rule, the concentration at which inhibition is half-maximal) is 1.7 nM. Also, the EC50 (as a rule, the concentration needed to bring the measured effect to its halfway point) in assay [1] (setting [3]) turned out to be 52 nM.

Regarding `CC(C)(O)[C@H](F)CNC(=O)c1cnc(Nc2ncc(C#N)cn2)cc1NC1CCC(F)C1` (some centres unmarked) [Example 87], the IC50 at IRAK4 (setting [2]) is 3.5 nM. Besides, the EC50 in assay [1] (setting [3]) turned out to be 197 nM. For `CC(C)(O)[C@H](F)CNC(=O)c1cnc(Nc2ncc(C#N)cc2Cl)cc1NC1CCCC1F` (some centres unmarked) [Example 74] the same measures were 2.7 nM and 84 nM. For `CC(C)(O)[C@H](F)CNC(=O)c1cnc(Nc2ncc(C#N)cc2Cl)cc1NC1CCC(F)C1` (some centres unmarked) [Example 57], at IRAK4 (setting [2]), the IC50 was determined as 1.8 nM. In addition, the EC50 in assay [1] (setting [3]) was found to be 68 nM. `CC(F)[C@@H](C)Nc1cc(Nc2ncc(C#N)cc2Cl)ncc1C(=O)NC[C@@H](F)C(C)(C)O` (some centres unmarked) [Example 160]: in assay [1] (setting [3]), the EC50 was 846 nM.

For the compound `CC(C)(O)[C@H](F)CNC(=O)c1cnc(Nc2ncc(C#N)cc2Cl)cc1NC1CCC(F)C1` (some centres unmarked) [Example 158], the IC50 at IRAK4 (setting [2]) was determined as 2.3 nM. Also, the EC50 in assay [1] (setting [3]) is 102 nM.

For the compound `CC(C)(O)[C@H](F)CNC(=O)c1cnc(Nc2ncc(C#N)cc2Cl)cc1NC1CCCC1O` (some centres unmarked) [Example 78], the IC50 at IRAK4 (setting [2]) was determined as 3.7 nM. The EC50 in assay [1] (setting [3]) amounted to 64 nM. For the compound `CC(C)(O)[C@H](F)CNC(=O)c1cnc(Nc2ncc(C#N)cn2)cc1N[C@H]1CCC[C@@H]1F` [Example 55], the IC50 was determined as 5 nM on IRAK4 (setting [2]) and 27 nM in assay [1] (human PBMCs, 5 hours, values without asterisk, read-out: Cell IC50).

As to `CC(C)(O)[C@H](F)CNC(=O)c1cnc(Nc2ncc(C#N)cc2Cl)cc1NC1CCC(F)C1` (some centres unmarked) [Example 157], the IC50 at IRAK4 (setting [2]) was found to be 2 nM. The EC50 in assay [1] (Homo sapiens, PBMC, 5 h, values marked * are EC50, read-out: Cell EC50 (*EC50)) worked out at 71 nM.

With `CC(C)(O)[C@H](F)CNC(=O)c1cnc(Nc2ncc(F)cc2F)cc1NC1CCCOC1` (some centres unmarked) [Example 110], the IC50 at IRAK4 (setting [2]) worked out at 15.7 nM. Also, the EC50 in assay [1] (setting [3]) is 705 nM. For the compound `CC(C)(O)[C@H](F)CNC(=O)c1cnc(Nc2ncc(F)cc2F)cc1NC1CCCOC1` (some centres unmarked) [Example 109], the IC50 at IRAK4 (setting [2]) turned out to be 13.7 nM. Moreover, the EC50 in assay [1] (setting [3]) is 350 nM.

Turning to `CC(C)(O)[C@H](F)CNC(=O)c1cnc(Nc2ncc(C#N)cc2F)cc1NC1CCC(F)C1` (some centres unmarked) [Example 82], at IRAK4 (setting [2]), the IC50 is 3 nM. Besides, the EC50 in assay [1] (setting [3]) came to 105 nM. Take `CC(C)(O)[C@H](F)CNC(=O)c1cnc(Nc2ncc(C#N)cc2Cl)cc1NC1CCCC1F` (some centres unmarked) [Example 70]: the IC50 at IRAK4 (setting [2]) amounted to 3.2 nM. In addition, in assay [1] (setting [3]), the EC50 is 91 nM. For `CC(C)(O)[C@H](F)CNC(=O)c1cnc(Nc2ncc(C#N)cn2)cc1NC1CCC(F)C1` (some centres unmarked) [Example 88], the IC50 at IRAK4 (setting [2]) was determined as 5.4 nM. For the same compound, the EC50 in assay [1] (setting [3]) worked out at 266 nM. On to `CC(F)[C@@H](C)Nc1cc(Nc2ncc(C#N)cc2Cl)ncc1C(=O)NC[C@@H](F)C(C)(C)O` (some centres unmarked) [Example 159], for which the EC50 in assay [1] (setting [3]) is 130 nM.

For `CC(C)Nc1cc(Nc2ncc(C#N)cc2F)ncc1C(=O)NC1CCC(C(C)(O)C2CC2)CC1` (centres unmarked) [Example 145], the IC50 at IRAK4 (read-out: IRAK4 IC50; ATP 500 μM; IRAK4 0.6 nM; 60 min at room temperature) was found to be 4.3 nM. In addition, the half-maximal effective concentration (EC50) in assay [1] (setting [3]) was 275 nM. With `CC(C)NC(=O)N[C@H](C)CCNC(=O)c1cnc(Nc2ncc(C#N)cc2F)cc1NC(C)C` [Example 29, (R)-6-((5-cyano-3-fluoropyridin-2-yl)amino)-4-(isopropylamino)-N-(3-(3-isopropylureido)butyl)nicotinamide], the IC50 on IRAK4 (setting [2]) came out at 1.2 nM. On to `COc1cnc(Nc2cc(NC3CCC3)c(C(=O)NC[C@@H](F)C(C)(C)O)cn2)nc1` [Example 112], for which, at IRAK4 (setting [2]), the IC50 was determined as 11 nM. Consider `CCn1ncc(Nc2cc(NC(C)C)c(C(=O)NC[C@@H](F)C(C)(C)O)cn2)n1` [Example 72], for which the IC50 on IRAK4 (setting [2]) came to 10.4 nM. Regarding `CC(C)(O)[C@H](F)CNC(=O)c1cnc(Nc2ncc(C#N)cc2F)cc1NC1CCC(F)C1` (some centres unmarked) [Example 115], the IC50 on IRAK4 (setting [2]) worked out at 4.5 nM. In addition, in assay [1] (setting [3]), the EC50 came out at 65 nM. `CC(C)Nc1cc(Nc2ccc(C#N)cn2)ncc1C(=O)N[C@H]1CC[C@H](C(=O)N[C@H]2C[C@H]2F)CC1` [Example 7, 6-((5-cyano-2-pyridinyl)amino)-N-(trans-4-(((1S,2R)-2-fluorocyclopropyl)carbamoyl)cyclohexyl)-4-(isopropylamino)nicotinamide]: the IC50 at IRAK4 (setting [2]) came out at 10.4 nM.

`CC(C)(O)[C@H](F)CNC(=O)c1cnc(Nc2ncc(C#N)cc2F)cc1NC12CCC(O)(CC1)C2` [Example 133]: the IC50 at IRAK4 (setting [2]) came to 3.2 nM.

Consider `C[C@@H](CO)Nc1cc(Nc2ncc(C#N)cc2Cl)ncc1C(=O)NC[C@@H](F)C(C)(C)O` [Example 50], for which the IC50 at IRAK4 (setting [2]) amounted to 9.4 nM.

Regarding `CC(C)(O)[C@H](F)CNC(=O)c1cnc(Nc2ncc(C#N)cc2F)cc1NC1CCOCC1` [Example 49], at IRAK4 (setting [2]), the IC50 amounted to 3.1 nM.

Regarding `CC(C)Nc1cc(Nc2ccnc(N)n2)ncc1C(=O)NC[C@@H](F)C(C)(C)O` [Example 131], on IRAK4 (setting [2]), the IC50 was found to be 10.6 nM.

Take `CC(C)Nc1cc(Nc2ccnc(NC3CCCOC3)n2)ncc1C(=O)NC[C@@H](F)C(C)(C)O` (stereo partly drawn) [Example 25, N-((2R)-2-fluoro-3-hydroxy-3-methylbutyl)-4-(isopropylamino)-6-((2-(tetrahydro-2H-pyran-3-ylamino)-4-pyrimidinyl)amino)nicotinamide]: at IRAK4 (setting [2]), the IC50 amounted to 9.9 nM.

As to `CC(C)(O)[C@H](F)CNC(=O)c1cnc(Nc2ncc(C#N)cc2Cl)cc1NC1CCCCC1O` (some centres unmarked) [Example 104], the IC50 at IRAK4 (setting [2]) was 8.6 nM. The same measure, in the same setting: under `CC(C)(O)[C@H](F)CNC(=O)c1cnc(Nc2ncc(C#N)cc2F)cc1Nc1cccc(C(N)=O)c1` [Example 135] stands 6 nM; under `CC(=O)Nc1nc(Nc2cc(NC(C)C)c(C(=O)NC[C@@H](F)C(C)(C)O)cn2)ncc1C#N` [Example 34], 6.1 nM.

For the compound `CC(C)(O)[C@H](F)CNC(=O)c1cnc(Nc2ncc(C#N)cc2Cl)cc1NC1CCCC1F` (some centres unmarked) [Example 71], on IRAK4 (setting [2]), the IC50 was determined as 2.8 nM. In assay [1] (setting [3]), the EC50 came to 394 nM. As for `CC(C)Nc1cc(Nc2ncc(C#N)cc2F)ncc1C(=O)N[C@H]1CC[C@H](C(=O)NC(C)C)CC1` [Example 116], the IC50 at IRAK4 (setting [2]) was 2.8 nM. As to `Cn1nnnc1-c1ccc(Nc2cc(Nc3ncc(C#N)cn3)ncc2C(=O)NC[C@@H](F)C(C)(C)O)cc1` [Example 147], the IC50 at IRAK4 (setting [2]) was determined as 12.4 nM. For `CC(C)Nc1cc(Nc2ncncc2N)ncc1C(=O)NC[C@@H](F)C(C)(C)O` [Example 132], on IRAK4 (setting [2]), the IC50 amounted to 13 nM. Still for that read-out and setting: with `CS(=O)(=O)[C@H]1CC[C@H](NC(=O)c2cnc(Nc3ncc(C#N)cc3F)cc2Nc2cccc(C(N)=O)c2)CC1` [Example 161] the figure was 15.5 nM; with `CNC(=O)[C@H]1CC[C@H](NC(=O)c2cnc(Nc3ncc(C#N)cc3F)cc2NC2CC2)CC1` [Example 59], 7.4 nM; with `CCCNc1cc(Nc2ncc(C#N)cc2F)ncc1C(=O)NC[C@@H](F)C(C)(C)O` [Example 139], 6 nM. Same read-out and setting: under `CC(C)Nc1cc(Nc2ncc(O)cn2)ncc1C(=O)NC[C@@H](F)C(C)(C)O` [Example 111] stands 11.8 nM; under `CC(C)(O)C(F)(F)CNC(=O)c1cnc(Nc2ncc(C#N)cc2Cl)cc1NC1CC1` [Example 43, 6-((3-chloro-5-cyanopyridin-2-yl)amino)-4-(cyclopropylamino)-N-(2,2-difluoro-3-hydroxy-3-methylbutyl)nicotinamide], 10.7 nM; under `CC(=O)N[C@H](C)CCNC(=O)c1cnc(Nc2ncc(C#N)cc2Cl)cc1NC(C)C` [Example 28, (R)—N-(3-acetamidobutyl)-6-((3-chloro-5-cyanopyridin-2-yl)amino)-4-(isopropylamino)nicotinamide], 1.5 nM. In the case of `CC(C)Nc1cc(Nc2ncc(C#N)c(N)n2)ncc1C(=O)NC[C@@H](F)C(C)(C)O` [Example 136], the IC50 at IRAK4 (setting [2]) came out at 3.3 nM. For the compound `CC(C)(O)[C@H](F)CNC(=O)c1cnc(Nc2ncc(C#N)cc2Cl)cc1NC12CC(C1)C2` [Example 90], the IC50 at IRAK4 (setting [2]) was 3.5 nM. `CC(C)Nc1cc(Nc2ncc(C#N)cn2)ncc1C(=O)NC[C@@H](F)C(C)(C)O` [Example 22, 6-((5-cyano-2-pyrimidinyl)amino)-N-((2R)-2-fluoro-3-hydroxy-3-methylbutyl)-4-(isopropylamino)nicotinamide]: on IRAK4 (setting [2]), the IC50 is 5.3 nM.

On to `CC(C)Nc1cc(Nc2ccncn2)ncc1C(=O)NC[C@@H](F)C(C)(C)O` [Example 20, N-((2R)-2-fluoro-3-hydroxy-3-methylbutyl)-4-(isopropylamino)-6-(4-pyrimidinylamino)nicotinamide], for which the concentration for half-maximal inhibition (IC50) on IRAK4 (setting [2]) amounted to 11.7 nM. Same read-out and setting: under `CC(C)(O)c1cnc(Nc2cc(Nc3ncc(C#N)cc3Cl)ncc2C(=O)NC[C@@H](F)C(C)(C)O)s1` [Example 75] stands 1.4 nM. The same measure, in the same setting: under `CC(C)(O)[C@H](F)CNC(=O)c1cnc(Nc2ncc(C#N)cc2F)cc1NC1CC1` [Example 47] stands 1.9 nM; under `CC(C)(F)CNc1cc(Nc2ncc(C#N)cc2Cl)ncc1C(=O)NC[C@@H](F)C(C)(C)O` [Example 46], 16.9 nM; under `CC(C)(O)[C@H](F)CNC(=O)c1cnc(Nc2ncc(C#N)cc2Cl)cc1Nc1ccc2ncsc2c1` [Example 153], 5.6 nM. As to `CC(C)(O)[C@H](F)CNC(=O)c1cnc(Nc2ccncn2)cc1NC1CC1` [Example 21, 4-(cyclopropylamino)-N-((2R)-2-fluoro-3-hydroxy-3-methylbutyl)-6-(4-pyrimidinylamino)nicotinamide], the IC50 on IRAK4 (setting [2]) was 13.3 nM. Consider `CC(=O)N[C@H]1CC[C@H](NC(=O)c2cnc(Nc3ncc(C#N)cc3Cl)cc2NC2CC2)CC1` [Example 67], for which the IC50 at IRAK4 (setting [2]) was found to be 7.2 nM.
